{"source": "patent US12377175B2", "about": "“Trifunctional constructs with tunable pharmacokinetics useful in imaging and anti-tumor therapies” (Cornell University, priority 2016, dated 2025)", "key": {"[1]": {"test_system": "LNCaP xenograft tumor-bearing mice", "test": "Biodistribution studies of 177Lu-labeled ligands in LNCaP xenograft mice", "format": "in vivo, mouse", "procedure": "(§1) Inoculation of mice with xenografts: All animal studies were approved by the Institutional Animal Care and Use Committee of Weill Cornell Medicine and were undertaken in accordance with the guidelines set forth by the USPHS Policy on Humane Care and Use of Laboratory Animals. Animals were housed under standard conditions in approved facilities with 12 h light/dark cycles. Food and water was provided ad libitum throughout the course of the studies. Hairless male nu/nu mice were purchased from the Jackson Laboratory. For inoculation in mice, LNCaP cells were suspended at 4×10^7 cells/mL in a 1:1 mixture of PBS:Matrigel (BD Biosciences). Each mouse was injected in the left flank with 0.25 mL of the cell suspension. The mice were imaged when the tumors reached approximately 200-400 mm^3, while biodistributions were conducted when tumors were in the range 100-400 mm^3.\nBiodistribution studies of 177Lu-labeled ligands in LNCaP xenograft mice: LNCaP xenograft tumor-bearing mice (5 per time point per compound) were injected intravenously with a bolus injection of 348-851 kBq (9.4-23 μCi) and 37-50 ng ([…]) of each ligand. The mice were sacrificed at 4, 24 and 96 h post injection. A blood sample was removed, and a full biodistribution study was conducted on the following organs (with contents): heart, lungs, liver, small intestine, large intestine, stomach, spleen, pancreas, kidneys, muscle, bone and tumor. Tissues were weighed and counted on a 2470 Wizard^2 Automatic Gamma Counter (Perkin Elmer). Counts were corrected for decay and for activity injected, and tissue uptake was expressed as percent injected dose per gram (% ID/g). Standard error measurement was calculated for each data point."}, "[2]": {"test_system": "LNCaP xenograft tumor-bearing mice", "test": "Dosimetry (dose integrals from time-activity curves of 177Lu-labeled ligands)", "format": "in vivo, mouse", "details": "over 96 h", "procedure": "Dosimetry: The dosimetry was calculated assuming a linear interpolation between the three time points. The average injected dose per organ was calculated by using the average of the activity and organ weights of the mice at that time point. Intermediate time points at every 4 hours were generated using the linear approximation and all time points were corrected for decay during the time interval between points. These curves were integrated using a trapezoidal approximation and the sum used to determine the residence time."}, "LNCaP xenograft tumors": {"test_system": "LNCaP xenograft tumors", "test": "Therapy study in LNCaP xenograft mice", "format": "in vivo, mouse", "details": "for tumors not detectable (<0.5 mm^3): 75 d post injection", "procedure": "as §1, with “xenografts.” for “xenografts:”, “Male BALB/c athymic” for “Hairless male”, “Biodistributions” for “The mice were imaged when the tumors reached approximately 200-400 mm^3, while biodistributions”, “200-800 mm^3, while therapy studies were initiated when tumors were in the range 50-900” for “100-400”\nTherapy study in LNCaP xenograft mice. LNCaP xenograft tumor-bearing mice were randomly assigned to 5 groups (7 mice per group). […] The fourth group was injected with the same volume of vehicle. The fifth group was injected with 133 kBq ^225Ac-DOTA-Lys-IPBA. Tumor dimensions were measured and recorded three times weekly with digital calipers, and tumor volumes were calculated using the modified ellipsoid equation, V=0.5*length*width*width. […] Body weight was measured with a digital balance twice weekly, and mice were monitored for signs of distress. The mice were photographed weekly to visually confirm changes in tumor volume."}, "[3]": {"test": "Biodistribution / in vivo stability of [225Ac(macropa)]+ compared with 225Ac(NO3)3 and [225Ac(DOTA)]- in C57BL/6 mice", "details": "for accumulation of 225Ac in organs / blood clearance and excretion: tail vein, 15 min, 1 h, 5 h", "procedure": "C57BL/6 mice were injected via tail vein with 10-50 kBq of each radiometal complex and were sacrificed after 15 min, 1 h, or 5 h."}, "PSMA on LNCaP cells": {"target": "T1, PSMA on LNCaP cells (Homo sapiens, UniProt Q04609)", "T1 construct": "host or cells: LNCaP", "T1 sequence (Q04609 whole entry)": "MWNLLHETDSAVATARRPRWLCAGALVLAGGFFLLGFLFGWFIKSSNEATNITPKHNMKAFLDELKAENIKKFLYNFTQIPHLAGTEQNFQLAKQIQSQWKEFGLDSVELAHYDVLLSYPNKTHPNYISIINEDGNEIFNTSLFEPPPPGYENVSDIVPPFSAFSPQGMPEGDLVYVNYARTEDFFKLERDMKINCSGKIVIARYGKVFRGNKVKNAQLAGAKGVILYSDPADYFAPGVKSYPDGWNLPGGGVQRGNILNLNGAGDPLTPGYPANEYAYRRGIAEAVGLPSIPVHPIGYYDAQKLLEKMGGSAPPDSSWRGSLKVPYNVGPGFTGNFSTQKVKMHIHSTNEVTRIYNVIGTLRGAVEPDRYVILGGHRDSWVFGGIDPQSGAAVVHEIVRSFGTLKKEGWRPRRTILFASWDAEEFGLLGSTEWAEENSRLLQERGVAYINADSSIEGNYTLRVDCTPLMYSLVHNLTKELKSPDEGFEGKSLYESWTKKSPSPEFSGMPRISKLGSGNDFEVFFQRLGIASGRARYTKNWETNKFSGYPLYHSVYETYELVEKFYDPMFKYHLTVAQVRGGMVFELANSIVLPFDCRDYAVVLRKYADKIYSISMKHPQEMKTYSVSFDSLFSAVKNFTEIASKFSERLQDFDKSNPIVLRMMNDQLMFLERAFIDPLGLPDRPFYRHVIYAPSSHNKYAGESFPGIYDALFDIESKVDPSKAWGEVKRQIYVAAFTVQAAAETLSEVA", "details": "cited from earlier work"}}}
{"smiles": "O=C([O-])CN1CCN(CC(=O)[O-])CCN(CC(=O)O)C(Cc2ccc(NC(=S)NCCCC[C@H](NC(=O)CCOCCOCCOCCOCCOCCOCCOCCOCCn3cc(-c4cccc(NC(=O)NCCCC[C@H](NC(=O)N[C@@H](CCC(=O)O)C(=O)O)C(=O)O)c4)nn3)C(=O)N[C@@H](CCCCNC(=O)Cc3ccc(I)cc3)C(=O)O)cc2)CN(CC(=O)[O-])CC1.[177Lu+3]", "note": "(stereo partly drawn) [177Lu-RPS-066]", "values": [{"measurement": "blood activity (comparison within the series)", "setting": "[1]; 4 h p.i.", "result": "lower blood retention"}, {"measurement": "tumor uptake", "setting": "[1]; 4 h p.i.", "result": "18.7±1.1", "unit": "% ID/g"}, {"measurement": "kidney uptake", "setting": "[1]; 24 h p.i.", "result": "6.2±0.8", "unit": "% ID/g"}, {"measurement": "tumor-to-kidney ratio", "setting": "[1]; 24 h p.i.", "result": "1.92±0.30"}, {"measurement": "tumor uptake", "setting": "[1]; 96 h p.i.", "result": "5.9±0.7", "unit": "% ID/g"}, {"measurement": "dose integral in the tumor relative to 177Lu-PSMA-617", "setting": "[2]", "result": "at least two times higher"}]}
{"smiles": "O=C(O)CC[C@H](NC(=O)N[C@@H](CCCCNC(=O)Nc1cccc(-c2cn(CCOCCOCCOCCC(=O)N[C@@H](CCCCNC(=S)Nc3cc(CN4CCOCCOCCN(Cc5cccc(C(=O)[O-])n5)CCOCCOCC4)nc(C(=O)[O-])c3)C(=O)NCCOCCOCCOCCOCCOCCOCCOCCOCCC(=O)N[C@@H](CCCCNC(=O)CCCc3ccc(I)cc3)C(=O)O)nn2)c1)C(=O)O)C(=O)O.[225Ac+3]", "note": "[225Ac-RPS-074]", "values": [{"measurement": "mice surviving the first 21 d", "setting": "LNCaP xenograft tumors; 37 kBq group", "result": 100, "unit": "%"}, {"measurement": "tumor growth rate", "setting": "LNCaP xenograft tumors; 37 kBq treatment group", "result": "appeared to grow at a similar rate to the untreated tumors"}, {"measurement": "tumors not detectable (<0.5 mm^3)", "setting": "LNCaP xenograft tumors; 74 kBq group, 1/7", "result": 14, "unit": "%"}, {"measurement": "tumor volumes that began to increase again", "setting": "LNCaP xenograft tumors; 74 kBq group, after 42 d, 6/7", "result": 86, "unit": "%"}, {"measurement": "time over which tumor volume decreased", "setting": "LNCaP xenograft tumors; 74 kBq group, post injection", "result": "≤ 42", "unit": "days"}, {"measurement": "mice with tumor volume less than 1 mm^3", "setting": "LNCaP xenograft tumors; 74 kBq group, up to 42 days p.i., 5/7", "result": 71, "unit": "%"}, {"measurement": "antitumor effect", "setting": "LNCaP xenograft tumors; 138 kBq and 74 kBq", "result": "significant antitumor effect"}, {"measurement": "survival of the 75 d study", "setting": "LNCaP xenograft tumors; 138 kBq treatment group", "result": "Every mouse in the 138 kBq treatment group survived"}, {"measurement": "tumors not detectable (<0.5 mm^3)", "setting": "LNCaP xenograft tumors; 138 kBq treatment group, 6/7", "result": 86, "unit": "%"}]}
{"smiles": "O=C([O-])c1cccc(CN2CCOCCOCCN(Cc3cccc(C(=O)[O-])n3)CCOCCOCC2)n1.[225Ac+3]", "note": "[[225Ac(macropa)]+]", "values": [{"measurement": "in vivo stability of the complex", "setting": "[3]", "result": "highly stable in vivo"}, {"measurement": "accumulation of 225Ac in organs", "setting": "[3]", "result": "did not accumulate in any organ"}, {"measurement": "blood clearance and excretion", "setting": "[3]", "result": "rapidly cleared from mice"}]}
{"smiles": "O=[N+]([O-])[O-].O=[N+]([O-])[O-].O=[N+]([O-])[O-].[225Ac]", "note": "[225Ac(NO3)3, reference compound]", "values": [{"measurement": "accumulation of 225Ac in organs", "setting": "[3]", "result": "large accumulation in the liver and spleen"}, {"measurement": "blood clearance and excretion", "setting": "[3]", "result": "slow blood clearance and excretion"}]}
{"smiles": "O=C([O-])CN1CCN(CC(=O)[O-])CCN(CC(=O)O)C(Cc2ccc(NC(=S)N[C@@H](CCCCNC(=O)CCCc3ccc(I)cc3)C(=O)O)cc2)CN(CC(=O)[O-])CC1.[225Ac+3]", "note": "(stereo partly drawn) [225Ac-DOTA-Lys-IPBA]", "values": [{"measurement": "mice surviving the first 21 d", "setting": "LNCaP xenograft tumors; 133 kBq positive control group", "result": 100, "unit": "%"}]}
{"smiles": "O=C([O-])CN1CCN(CC(=O)[O-])CCN(CC(=O)[O-])CCN(CC(=O)[O-])CC1.[225Ac+3]", "note": "[[225Ac(DOTA)]-, reference compound]", "values": [{"measurement": "blood clearance and excretion", "setting": "[3]", "result": "clear more rapidly through the urine"}]}
{"smiles": "O=C(O)CC[C@H](NC(=O)N[C@@H](CCC(=O)N[C@@H](CCCCN(Cc1nccn1CC(=O)O)Cc1nccn1CC(=O)O)C(=O)O)C(=O)O)C(=O)O.[C-]#[O+].[C-]#[O+].[C-]#[O+].[Tc+]", "note": "[99mTc-MIP-1427, ^99mTc-((7S,12S,16S)-1-(1-(carboxymethyl)-1H-imidazol-2-yl)-2-((1-(carboxymethyl)-1H-imidazol-2-yl)methyl)-9,14-dioxo-2,8,13,15-tetraazaoctadecane-7,12,16,18-tetracarboxylic acid technetiumtricarbonylcomplex)]", "values": [{"measurement": "Kd", "setting": "PSMA on LNCaP cells", "result": "0.64 ± 0.46", "unit": "nM"}]}
{"smiles": "O=C([O-])CN1CCN(CC(=O)[O-])CCN(CC(=O)O)C(Cc2ccc(NC(=S)NCCCC[C@H](NC(=O)CCOCCOCCOCCn3cc(-c4cccc(NC(=O)NCCCC[C@H](NC(=O)N[C@@H](CCC(=O)O)C(=O)O)C(=O)O)c4)nn3)C(=O)N[C@@H](CCCCNC(=O)Cc3ccc(I)cc3)C(=O)O)cc2)CN(CC(=O)[O-])CC1.[177Lu+3]", "note": "(stereo partly drawn) [177Lu-RPS-063]", "values": [{"measurement": "blood activity (comparison within the series)", "setting": "[1]; 4 h p.i.", "result": "highest blood activity"}, {"measurement": "tumor uptake", "setting": "[1]; 4 h p.i.", "result": "30.0±3.1", "unit": "% ID/g"}, {"measurement": "kidney uptake", "setting": "[1]; 24 h p.i.", "result": "51.8±8.6", "unit": "% ID/g"}, {"measurement": "tumor uptake", "setting": "[1]; 96 h p.i.", "result": "12.9±0.5", "unit": "% ID/g"}, {"measurement": "tumor-to-kidney ratio", "setting": "[1]; 96 h p.i.", "result": "2.75±0.17"}, {"measurement": "dose integral in the tumor relative to 177Lu-PSMA-617", "setting": "[2]", "result": "nearly four times higher"}]}
{"smiles": "O=C([O-])CN1CCN(CC(=O)[O-])CCN(CC(=O)O)C(Cc2ccc(NC(=S)NCCCC[C@H](NC(=O)CCOCCOCCOCCOCCOCCOCCn3cc(-c4cccc(NC(=O)NCCCC[C@H](NC(=O)N[C@@H](CCC(=O)O)C(=O)O)C(=O)O)c4)nn3)C(=O)N[C@@H](CCCCNC(=O)Cc3ccc(I)cc3)C(=O)O)cc2)CN(CC(=O)[O-])CC1.[177Lu+3]", "note": "(stereo partly drawn) [177Lu-RPS-069]", "values": [{"measurement": "blood activity (comparison within the series)", "setting": "[1]; 4 h p.i.", "result": "lower blood retention"}, {"measurement": "tumor uptake", "setting": "[1]; 4 h p.i.", "result": "17.0±2.1", "unit": "% ID/g"}, {"measurement": "tumor uptake", "setting": "[1]; 96 h p.i.", "result": "9.8±0.8", "unit": "% ID/g"}, {"measurement": "dose integral in the tumor relative to 177Lu-PSMA-617", "setting": "[2]", "result": "at least two times higher"}]}
{"smiles": "O=C([O-])CN1CCN(CC(=O)[O-])CCN(CC(=O)O)C(Cc2ccc(NC(=S)NCCCC[C@H](NC(=O)CCOCCOCCOCCOCCn3cc(-c4cccc(NC(=O)NCCCC[C@H](NC(=O)N[C@@H](CCC(=O)O)C(=O)O)C(=O)O)c4)nn3)C(=O)N[C@@H](CCCCNC(=O)Cc3ccc(I)cc3)C(=O)O)cc2)CN(CC(=O)[O-])CC1.[177Lu+3]", "note": "(stereo partly drawn) [177Lu-RPS-061]", "values": [{"measurement": "blood activity (comparison within the series)", "setting": "[1]; 4 h p.i.", "result": "highest blood activity"}, {"measurement": "tumor-to-kidney ratio", "setting": "[1]; 96 h p.i.", "result": "3.64±0.29"}, {"measurement": "dose integral in the tumor relative to 177Lu-PSMA-617", "setting": "[2]", "result": "at least two times higher"}]}
